From US5216147A, “Radioactive benzodiazepine derivatives” (Sumitomo Chemical Company, Limited, priority 1987, dated 1993) come the findings set out here.

This test has as its target Benzodiazepine Receptors. Description: Benzodiazepine receptor binding affinity: displacement of 3H-diazepam from rat synaptosomal membranes. To be noted: for Ki: 3H-diazepam; for Ki / IC50: 4° C., 15 min, triplicate; for IC50: inhibition of specific 3H-diazepam binding; for Relative Potency: relative to Diazepam = 100, 3H-diazepam. The protocol:
2'-Iododiazepam, Diazepam and Fludiazepam were screened as for benzodiazepine binding affinity according to the method reported by Nakatsuka (Life Sciences 36 (2) 113-119, 1985). An aliquot of synaptosomal membrane preparations was incubated at 4° C. for 15 min. with each of the unlabeled competing drugs (2'-Iodoiazepam, Diazepam and Fludiazepam) in different concentration and 3H-diazepam. The incubation was terminated by adding ice-cold Tris-HCl buffer followed by a rapid filtration through a Whatman GF/B filter. The bound 3H-diazepam retained on the filter was extracted with ACS-II (Amersham) and counted. All incubations were conducted in triplicate. Nonspecific binding was determined in tubes containing diazepam. Specific binding was calculated by subtracting the nonspecific binding from the total binding. IC50 values, the concentrations of the tested compounds that cause 50% inhibition of the specific 3H-diazepam were determined from the displacement curves obtained.
A general note: Loss of bound radioactivity is the signal in a displacement assay; it reports binding, not function.

For orientation: Ki means a measure of affinity in units of concentration, obtained from inhibition or displacement. The low end stands for a stronger hold on the target, the high end for a looser hold on the target. In general, IC50 refers to the concentration needed to halve the response being measured. A lower IC50 goes with greater potency in that assay. For `CN1C(=O)CN=C(c2ccccc2F)c2cc(Cl)ccc21` [Fludiazepam], the affinity, expressed as Ki, was 1 nM; the IC50 is 1.2 nM; the “Relative Potency” value amounted to 770.
In the same order, the values of `CN1C(=O)CN=C(c2ccccc2)c2cc(Cl)ccc21` [Diazepam] are 7.7 nM, 9 nM and 100.
In the same order, the values of `CN1C(=O)CN=C(c2ccccc2I)c2cc(Cl)ccc21` [2'-Iododiazepam, 7-chloro-1-methyl-5-(2-iodophenyl)-3H-1,4-benzodiazepin-2-one] are 0.21 nM, 0.25 nM and 3600.
